Source: PubChem BioAssay (NCI)
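1) Cells in 96-well plates. 2) Compound, 48 h, 5 concentrations. 3) Linear interpolation between surrounding doses. 4) Unreached endpoint = highest concentration. TGI marks complete inhibition of growth.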

Key:
Experiment in all cases: DTP human tumour cell line panel, 48 h
SN12C renal = system: SN12C renal
MOLT-4 leukemia = system: MOLT-4 leukemia
K-562 leukemia = system: K-562 leukemia
SK-MEL-28 melanoma = system: SK-MEL-28 melanoma
SK-OV-3 ovarian = system: SK-OV-3 ovarian
HT29 colon = system: HT29 colon
SF-268 CNS = system: SF-268 CNS
NCI-H522 lung = system: NCI-H522 lung
IGROV1 ovarian = system: IGROV1 ovarian
SR leukemia = system: SR leukemia

SMILES | TGI (SN12C renal) [µM] | TGI (MOLT-4 leukemia) [µM] | TGI (K-562 leukemia) [µM] | TGI (SK-MEL-28 melanoma) [µM] | TGI (SK-OV-3 ovarian) [µM] | TGI (HT29 colon) [µM] | TGI (SF-268 CNS) [µM] | TGI (NCI-H522 lung) [µM] | TGI (IGROV1 ovarian) [µM] | TGI (SR leukemia) [µM]
CCC1CN2CCc3c([nH]c4ccccc34)[C@@](C(=O)OC)(c3cc4c(cc3OC)N(C)C3C(O)(C(=O)OC)C(C(=O)OC)C5(CC)C=CCN6CCC43C65)C[C@@H](C2)[C@@H]1C(C)(C)C (stereo not given in full) | 9.93 | 8.12 | 9.73 | > 10 | > 10 | > 2.64 | > 10 | 3.56 | > 10 | > 6.41
CC[C@]1(Cc2ccc(OC)c(OC)c2)C=[N+]([O-])O[C@H](OC2CCCC2(c2ccccc2)c2ccccc2)[C@@H]1OC(=O)C(C)(C)C (stereo not given in full) | > 22.1 | > 100 | > 100 | 4.22 | > 86.1 | 4.49 | > 32.5 | 4.99 | 9 | > 100
COc1cc2c(cc1OC)C(=O)N(c1ccc(OCCN3CCCC3)cc1)C2=O | > 100 | > 100 | > 100 | > 100 | > 100 | > 100 | > 100 | > 100 | > 100 | > 100
Cc1ccccc1Nc1nc2ccccc2nc1NS(=O)(=O)c1ccccc1 | > 100 | > 100 | > 100 | > 100 | > 100 | > 100 | > 100 | > 100 | > 100 | > 100
NC(N)=NCCCC(NC(=O)c1c2ccccc2nc2ccccc12)C(=O)O (stereo not given) | > 100 | > 100 | > 100 | > 100 | > 100 | > 100 | > 100 | > 100 | > 100 | > 100
CC[C@@]12CCC(=S)N(CCSc3ccccc3)[C@@H]1c1c(n(S(=O)(=O)c3ccc(OC)cc3)c3ccccc13)CC2 | > 100 | > 100 | > 100 | > 100 | > 100 | > 100 | > 100 | > 100 | > 100 | > 100
Cc1ccc(NCCN(C)C)c2c(=O)c3cc(O)ccc3sc12 | 14 | 3.2 | 11.7 | 12.5 | 9.84 | 8.2 | 15.6 | 11.1 | 17.2 | 4.79
O=S(=O)(O)c1cc(O)c(N=Nc2ccc3ccccc3c2O)c2ccccc12 | > 100 | 97 | 74.6 | > 100 | > 100 | 72.3 | 58.7 | 40.2 | 32.3 | > 100
CC1CCCN1CCCOC(=O)c1ccc(OC2C=CCCC2)cc1 (stereo not given) | > 100 | 55.3 | 38.9 | > 100 | > 100 | 60.4 | > 100 | 54 | 58.4 | 59.9
CCCCCCCCCCCCC1N=C(N)NC2(CCCO2)C1C(=O)OC (stereo not given) | 34.2 | 5.3 | 5.25 | 21.6 | 23.8 | 3.48 | 14.8 | 9.7 | 6.72 | > 20.9
COC1OC(C(=O)O)C2OC(C)(C)OC12 (stereo not given) | > 100 | > 100 | > 100 | > 100 | > 100 | > 100 | > 100 | > 100 | > 100 | > 100
O=C1C=C/C(=C/[C@H]2SSC=C[C@]23C=CC(=O)C3)C1 | 52.3 | 7.16 | > 100 | 42 | > 100 | 32.2 | > 85.2 | 27.7 | 48 | > 100
Cc1ccc(NC(=O)C(=O)Cc2cccc[n+]2[O-])cc1C | > 100 | > 100 | > 100 | > 100 | > 100 | > 100 | > 100 | > 100 | > 100 | > 100
O=C1C2CC[C@@H]3C(=O)C(Cl)(Cl)[C@@H]3CCC2C1(Cl)Cl (stereo not given in full) | > 100 | 74.7 | > 100 | > 100 | > 100 | > 100 | > 100 | > 100 | > 100 | 70.3
CC1(Cl)CC(C)(/C=C/Cl)C(Cl)CC1Cl (stereo not given) | 31 | > 100 | 57 | 29.4 | 66.4 | 27.3 | 31.1 | 31.6 | 30.4 | 44.6
C(=C\c1c2oc(-c3ccccc3)cc(-c3ccccc3)c-2c2ccccc12)/C=C1\c2ccccc2-c2c(-c3ccccc3)cc(-c3ccccc3)[o+]c21 | > 100 | > 100 | > 100 | > 100 | > 100 | > 100 | > 100 | > 100 | > 100 | > 100

SMILES | TGI (SN12C renal) [µM] | TGI (MOLT-4 leukemia) [µM] | TGI (K-562 leukemia) [µM] | TGI (SK-MEL-28 melanoma) [µM] | TGI (SK-OV-3 ovarian) [µM] | TGI (HT29 colon) [µM] | TGI (SF-268 CNS) [µM] | TGI (NCI-H522 lung) [µM] | TGI (IGROV1 ovarian) [µM] | TGI (SR leukemia) [µM]
CC(NNC(=O)c1ccncc1)c1ccc(Cl)cc1Cl (stereo not given) | > 100 | > 100 | > 100 | > 100 | > 100 | > 100 | > 100 | > 100 | > 100 | > 100
COc1cc(/C=C2/Oc3c(OC)cccc3C2=O)ccc1O | > 100 | > 100 | > 100 | > 100 | > 100 | > 100 | > 100 | > 100 | > 100 | > 100
N#CC(NNC(=O)c1ccccc1O)c1c(O)ccc2ccccc12 (stereo not given) | 37.9 | 37.8 | > 66.3 | > 100 | 40.7 | > 87.7 | 64.9 | 18.7 | 33.9 | 40.8
Clc1cc2ncn(C3CCCCO3)c2cc1Cl (stereo not given) | > 100 | > 100 | > 100 | > 100 | > 100 | > 100 | > 100 | 59.2 | > 100 | > 100
Cc1cc(C)nc(NS(=O)(=O)c2ccc(Nc3c4ccccc4nc4ccc(C(=O)Nc5ccc(S(=O)(=O)N=C(N)N)cc5)cc34)cc2)n1 | > 100 | > 100 | 62.3 | > 100 | > 100 | > 100 | > 100 | > 100 | > 100 | > 100
CSc1nc(C)c2c(n1)N(c1ccc(Cl)cc1)CC2 | > 100 | > 100 | > 100 | > 100 | > 100 | > 100 | > 100 | > 100 | > 100 | > 100
C/C(=N\NC(=S)N1CCOCC1)c1nc2ncccc2[nH]1 | > 100 | > 100 | > 100 | > 100 | > 100 | > 100 | > 100 | 59.3 | > 100 | > 100
C/C(Nc1ccc(Cl)cc1)=C1/CCOC1=O | > 100 | > 76.5 | > 100 | > 100 | > 100 | > 100 | > 100 | > 100 | > 100 | > 100
COC(=O)C(NC(=O)c1ccccc1)C(c1c(O)cc(O)cc1O)P(=O)(OC)OC (stereo not given) | > 100 | > 100 | > 100 | > 100 | > 100 | > 100 | > 100 | > 100 | > 100 | > 100
Cn1c(NC(=O)NC23CC4CC(CC(C4)C2)C3)nc2ccccc21 | > 100 | > 100 | > 100 | > 100 | 51.8 | > 100 | > 100 | > 100 | > 100 | > 100
S=c1[nH]n2c(COc3cc(Cl)c(OCc4nnc5sc(=S)[nH]n45)cc3Cl)nnc2s1 | > 100 | > 100 | > 100 | > 100 | > 100 | > 100 | > 100 | 53.9 | > 100 | > 100
O=C1c2ccccc2C(=O)c2sc(Nc3cc(Cl)ccc3Cl)nc21 | 3.17 | > 30.4 | > 31.8 | 27.3 | 30.3 | 36.1 | 21 | 18.3 | 24.3 | > 100
c1ccc(-c2c(-c3[nH]c4ccccc4c3-c3ccccc3)[nH]c3ccccc23)cc1 | 3.8 | 13.3 | 36.8 | 25.7 | 21 | > 100 | 21.5 | 14.6 | 16.3 | 7.84
CCc1cc2c(c3c1CCCC3=O)CC1(C2)Cc2cc(CC)c3c(c2C1)C(=O)CCC3 | > 100 | > 100 | > 100 | > 100 | > 100 | > 100 | > 100 | > 100 | > 100 | 75.1
COc1ccc(CC[N+]2(C)COc3cc4oc(=O)cc(C)c4cc3C2)cc1OC (stereo not given) | > 100 | 18 | > 100 | > 100 | > 100 | > 100 | > 100 | > 100 | > 100 | > 100
